Source: patent US6610309B2, “Therapeutic composition comprising an antigen or an in vivo generator of a compound comprising an amino acid sequence” (Societe d'Exploitation de Produits pour les Industries …, priority 1995, dated 2003)
Where two headings read alike, the source gives them in different places.

Columns and labels:
anti-BSA antibodies = type: in vivo, OF1 mice; details: last dilution above background noise; for anti-BSA antibody/ primary response (D14) / anti-BSA antibody/ primary response (D28): 50 μg BSA in 100 μl s.c. on D0
Description: (§1) The examples were performed on OF1 mice whose average weight was between 18 and 20 g.
The results expressed are an average of the results obtained on 10 mice.
(§2) The therapeutic compositions comprised Sigma Grade V bovine serum albumin (BSA) as antigen.
(§3) The therapeutic compositions were injected subcutaneously.
The humoral immune response was determined by assay of the total IgG and of the total IgG1, according to the ELISA method.
The antibody levels mentioned in the examples correspond to the last dilution above the background noise.
Therapeutic compositions (or doses) of 100 μl each, comprising 50 μg of BSA, are prepared.
These therapeutic compositions were injected into the mice on D0 (i.e. the day of injection).
The level of anti-BSA antibodies was determined 14 and 28 days after the injection (primary response).
On D28, the same therapeutic composition was injected into the same mice.
The level of anti-BSA antibodies was determined on D42 and D56.

total IgG and total IgG1 = test: Humoral response, comparison of calcium salts (Example 4); type: in vivo, OF1 mice; details: 0.5 mg of calcium salt, 50 μg antigen, 100 μl s.c.; injection repeated on D28; antibodies assayed on D42
Description: as §3
(§4) The antibodies were assayed 42 days after the vaccination.
(§5) Injection of the therapeutic composition was repeated on D28. The antibodies were assayed on D42.

IgG2a = test: Cell response, comparison of calcium salts (Example 4); type: in vivo, OF1 mice; details: 0.5 mg of calcium salt, 50 μg antigen, 100 μl s.c.; injection repeated on D28; antibodies assayed on D42
Description: as §3, §4, §5

mice [1] = details: in vivo, sc
Description: as §1, §2, §3
A therapeutic composition 100 μl in volume, comprising 50 μg of antigen, was injected into various batches of mice each comprising 5 mice. The local reactions (lesions and granulomae) were evaluated on D8 and D35.

mice [2] = details: 0.5 mg of calcium salt, 50 μg antigen, 100 μl s.c.; observed during the tests of Example 4
Description: as §3
Each therapeutic composition, 100 μl in volume, contained 50 μg of antigen and, except for the control, 0.5 mg of a calcium salt, such that the calcium concentration of each composition was 2.7 mg.
as §5

[3] = adjuvant 0.5 mg/dose, 50 μg BSA s.c. on D0, repeated on D28
[4] = adjuvant 2 mg/dose, 50 μg BSA s.c. on D0, repeated on D28
[5] = adjuvant 3 mg/dose, 50 μg BSA s.c. on D0, repeated on D28
[6] = adjuvant 1 mg/dose, 50 μg BSA in 100 μl s.c. on D0, repeated on D28

Compound	Humoral response (total IgG and total IgG1)	Cell response (IgG2a)	local reactions (D8), Mouse No. 1 (mice [1])	local reactions (D8), Mouse No. 2 (mice [1])	local reactions (D8), Mouse No. 3 (mice [1])	local reactions (D8), Mouse No. 4 (mice [1])	local reactions (D8), Mouse No. 5 (mice [1])	local reactions (D35), Mouse No. 1 (mice [1])	local reactions (D35), Mouse No. 2 (mice [1])	local reactions (D35), Mouse No. 3 (mice [1])	local reactions (D35), Mouse No. 4 (mice [1])	local reactions (D35), Mouse No. 5 (mice [1])	further results
O=C([O-])[C@H](O)[C@@H](O)[C@H](O)[C@H](O)CO.O=C([O-])[C@H](O)[C@@H](O)[C@H](O)[C@H](O)CO.[Zn+2] [GluZn]													anti-BSA antibody/ primary response (D14) (anti-BSA antibodies; adjuvant 0.5 mg/dose): 16,000; anti-BSA antibody/ primary response (D28) (anti-BSA antibodies; adjuvant 0.5 mg/dose): 6000; anti-BSA antibody/ primary response (D42) (anti-BSA antibodies; [3]): 96,000; anti-BSA antibody/ primary response (D56) (anti-BSA antibodies; [3]): 96,000
O=C([O-])[O-].[Ca+2] [CaCO3]	32,000	4000											
O=P([O-])([O-])OCC(O)CO.[Ca+2] (centres unmarked) [GlyCa]													anti-BSA antibody/ primary response (D14) (anti-BSA antibodies; adjuvant 2 mg/dose): 4000; anti-BSA antibody/ primary response (D28) (anti-BSA antibodies; adjuvant 2 mg/dose): 2000; anti-BSA antibody/ primary response (D42) (anti-BSA antibodies; [4]): 64,000; anti-BSA antibody/ primary response (D56) (anti-BSA antibodies; [4]): 64,000
O=C([O-])[C@H](O)[C@@H](O)[C@H](O)[C@H](O)CO.O=C([O-])[C@H](O)[C@@H](O)[C@H](O)[C@H](O)CO.[Ca+2] [GluCa]	128,000	32,000	−	−	−	−	−	−	−	−	−	−	anti-BSA antibody/ primary response (D14) (anti-BSA antibodies; adjuvant 3 mg/dose): 116,000; anti-BSA antibody/ primary response (D28) (anti-BSA antibodies; adjuvant 3 mg/dose): 8000; anti-BSA antibody/ primary response (D42) (anti-BSA antibodies; [5]): 128,000; anti-BSA antibody/ primary response (D56) (anti-BSA antibodies; [5]): 96,000
O=P([O-])([O-])OCC(O)CO.[Mn+2] (centres unmarked) [GlyMn]				+	++	+	−	−	+	+	+	+	
O=P([O-])([O-])O.[Ca+2] [CaHPO4]	64,000	10,000											
O=C([O-])C(O)C(O)C(O)C(O)C(O)CO.O=C([O-])C(O)C(O)C(O)C(O)C(O)CO.[Zn+2] (centres unmarked) [GluhpZn]													anti-BSA antibody/ primary response (D42) (anti-BSA antibodies; [6]): 64,000; anti-BSA antibody/ primary response (D56) (anti-BSA antibodies; [6]): 64,000; anti-BSA antibody/ primary response (D28) (anti-BSA antibodies; adjuvant 1 mg/dose): 6000; anti-BSA antibody/ primary response (D14) (anti-BSA antibodies; adjuvant 1 mg/dose, average of 10 mice): 8000
O=C([O-])[C@H](O)[C@@H](O)[C@H](O)[C@H](O)CO.[K+] [GluK]			−	−	−	−	−	−	−	−	−	−	
[Cl][Mn][Cl] [MnCl^2+, reference compound]			+++					+++					
[Ca+2].[Cl-].[Cl-] [CaCl2]	64,000	24,000											lesions induced (mice [2]): very large lesions
